“Also recorded” adds a separate entry of the source.
Experiments:
human OATP1B3 = target: T1, human OATP1B3 (Homo sapiens, UniProt Q9NPD5); assay: Transporter inhibition, uptake assay; assay type: in vitro ADME
T1 sequence (Q9NPD5 1-702): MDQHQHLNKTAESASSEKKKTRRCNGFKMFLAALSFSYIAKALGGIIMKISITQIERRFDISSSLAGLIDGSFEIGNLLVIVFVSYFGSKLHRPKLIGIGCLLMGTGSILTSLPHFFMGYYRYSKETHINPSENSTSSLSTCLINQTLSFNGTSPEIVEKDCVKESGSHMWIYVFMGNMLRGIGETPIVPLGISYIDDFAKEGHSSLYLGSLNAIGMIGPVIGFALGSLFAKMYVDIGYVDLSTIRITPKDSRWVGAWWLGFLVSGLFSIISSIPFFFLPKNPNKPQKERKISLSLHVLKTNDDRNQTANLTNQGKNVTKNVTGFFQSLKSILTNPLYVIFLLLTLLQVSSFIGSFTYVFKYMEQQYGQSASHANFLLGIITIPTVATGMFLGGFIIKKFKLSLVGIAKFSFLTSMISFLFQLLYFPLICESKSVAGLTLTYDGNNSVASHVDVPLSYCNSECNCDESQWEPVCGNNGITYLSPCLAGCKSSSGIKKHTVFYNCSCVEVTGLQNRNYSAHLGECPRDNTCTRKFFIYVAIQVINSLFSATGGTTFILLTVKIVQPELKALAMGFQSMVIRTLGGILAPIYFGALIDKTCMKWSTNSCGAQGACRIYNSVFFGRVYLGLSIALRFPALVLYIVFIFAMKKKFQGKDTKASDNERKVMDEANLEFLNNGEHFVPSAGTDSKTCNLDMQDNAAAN

human MATE2‐K = human MATE2‐K (Homo sapiens, UniProt Q86VL8); assay: Transporter inhibition, uptake assay; assay type: in vitro ADME
human OAT1 = target: T2, human OAT1 (Homo sapiens, UniProt Q4U2R8); assay: Transporter inhibition, uptake assay; assay type: in vitro ADME
T2 sequence (Q4U2R8 1-563): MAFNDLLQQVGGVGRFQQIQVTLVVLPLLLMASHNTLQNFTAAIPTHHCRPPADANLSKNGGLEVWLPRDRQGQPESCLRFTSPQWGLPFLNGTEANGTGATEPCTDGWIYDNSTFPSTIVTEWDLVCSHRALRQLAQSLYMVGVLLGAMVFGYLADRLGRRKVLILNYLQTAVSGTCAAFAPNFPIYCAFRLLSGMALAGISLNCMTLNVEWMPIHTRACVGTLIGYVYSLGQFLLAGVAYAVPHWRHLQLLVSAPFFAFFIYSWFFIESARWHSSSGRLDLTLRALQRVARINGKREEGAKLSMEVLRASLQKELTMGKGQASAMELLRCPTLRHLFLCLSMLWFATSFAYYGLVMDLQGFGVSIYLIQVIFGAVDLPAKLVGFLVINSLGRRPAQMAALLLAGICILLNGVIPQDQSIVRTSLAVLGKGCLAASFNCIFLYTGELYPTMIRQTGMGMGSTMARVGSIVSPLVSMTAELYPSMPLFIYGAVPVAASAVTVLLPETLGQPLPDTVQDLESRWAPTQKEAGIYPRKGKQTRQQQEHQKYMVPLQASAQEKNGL

[1] = healthy male subjects, single oral dose of 60 mg 14C‐DFZ; cited from earlier work
human MATE1 = target: T3, human MATE1 (Homo sapiens, UniProt Q96FL8); assay: Transporter inhibition, uptake assay; assay type: in vitro ADME
T3 sequence (Q96FL8 1-570): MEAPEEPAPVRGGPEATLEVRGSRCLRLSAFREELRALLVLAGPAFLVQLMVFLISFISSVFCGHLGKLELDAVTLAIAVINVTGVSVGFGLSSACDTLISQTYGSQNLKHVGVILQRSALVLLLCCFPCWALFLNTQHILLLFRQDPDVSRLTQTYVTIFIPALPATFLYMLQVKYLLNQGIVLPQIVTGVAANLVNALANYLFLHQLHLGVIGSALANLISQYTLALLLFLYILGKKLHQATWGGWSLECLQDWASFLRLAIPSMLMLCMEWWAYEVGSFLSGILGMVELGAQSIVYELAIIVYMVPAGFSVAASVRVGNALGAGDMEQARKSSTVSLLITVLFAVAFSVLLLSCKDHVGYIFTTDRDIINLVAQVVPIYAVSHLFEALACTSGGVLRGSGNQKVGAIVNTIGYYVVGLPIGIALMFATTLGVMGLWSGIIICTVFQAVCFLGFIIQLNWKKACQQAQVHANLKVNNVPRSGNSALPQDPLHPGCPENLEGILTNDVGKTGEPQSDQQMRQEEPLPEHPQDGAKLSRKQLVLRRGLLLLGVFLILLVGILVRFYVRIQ

human OCT1 = human OCT1 (Homo sapiens, UniProt O15245); assay: Transporter inhibition, uptake assay; assay type: in vitro ADME
human OCT2 = target: T4, human OCT2 (Homo sapiens, UniProt O15244); assay: Transporter inhibition, uptake assay; assay type: in vitro ADME
T4 sequence (O15244 1-555): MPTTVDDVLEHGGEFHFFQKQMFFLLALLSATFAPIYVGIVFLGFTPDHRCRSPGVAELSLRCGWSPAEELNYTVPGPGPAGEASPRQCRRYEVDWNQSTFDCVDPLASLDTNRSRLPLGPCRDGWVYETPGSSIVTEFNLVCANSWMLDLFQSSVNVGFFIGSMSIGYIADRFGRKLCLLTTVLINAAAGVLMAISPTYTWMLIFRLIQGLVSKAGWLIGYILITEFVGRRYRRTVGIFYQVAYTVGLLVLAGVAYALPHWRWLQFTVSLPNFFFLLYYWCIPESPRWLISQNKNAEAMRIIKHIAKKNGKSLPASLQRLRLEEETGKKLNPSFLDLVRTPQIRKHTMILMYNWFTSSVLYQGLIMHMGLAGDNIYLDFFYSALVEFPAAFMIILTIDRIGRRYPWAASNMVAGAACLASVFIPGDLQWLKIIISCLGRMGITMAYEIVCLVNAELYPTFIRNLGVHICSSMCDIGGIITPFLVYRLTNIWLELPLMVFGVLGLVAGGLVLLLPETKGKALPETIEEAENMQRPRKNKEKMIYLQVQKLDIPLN

human MATE2‐K, sequence (Q86VL8 1-566 isoform Q86VL8-3): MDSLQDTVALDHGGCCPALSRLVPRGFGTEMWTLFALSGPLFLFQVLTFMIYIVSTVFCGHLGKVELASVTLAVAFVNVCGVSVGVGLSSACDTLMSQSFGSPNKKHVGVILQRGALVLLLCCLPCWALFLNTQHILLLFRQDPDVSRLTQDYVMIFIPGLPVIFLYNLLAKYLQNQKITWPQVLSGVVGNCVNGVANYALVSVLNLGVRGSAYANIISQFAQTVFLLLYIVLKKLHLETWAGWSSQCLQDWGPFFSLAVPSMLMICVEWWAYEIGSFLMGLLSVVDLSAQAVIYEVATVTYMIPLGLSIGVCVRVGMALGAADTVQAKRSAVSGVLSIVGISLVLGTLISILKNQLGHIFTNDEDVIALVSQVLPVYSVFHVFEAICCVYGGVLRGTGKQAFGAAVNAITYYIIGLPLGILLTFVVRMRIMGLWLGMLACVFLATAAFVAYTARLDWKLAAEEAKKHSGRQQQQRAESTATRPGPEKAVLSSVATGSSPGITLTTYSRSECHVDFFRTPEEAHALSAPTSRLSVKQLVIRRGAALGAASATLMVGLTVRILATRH
human OCT1, sequence (O15245 whole entry): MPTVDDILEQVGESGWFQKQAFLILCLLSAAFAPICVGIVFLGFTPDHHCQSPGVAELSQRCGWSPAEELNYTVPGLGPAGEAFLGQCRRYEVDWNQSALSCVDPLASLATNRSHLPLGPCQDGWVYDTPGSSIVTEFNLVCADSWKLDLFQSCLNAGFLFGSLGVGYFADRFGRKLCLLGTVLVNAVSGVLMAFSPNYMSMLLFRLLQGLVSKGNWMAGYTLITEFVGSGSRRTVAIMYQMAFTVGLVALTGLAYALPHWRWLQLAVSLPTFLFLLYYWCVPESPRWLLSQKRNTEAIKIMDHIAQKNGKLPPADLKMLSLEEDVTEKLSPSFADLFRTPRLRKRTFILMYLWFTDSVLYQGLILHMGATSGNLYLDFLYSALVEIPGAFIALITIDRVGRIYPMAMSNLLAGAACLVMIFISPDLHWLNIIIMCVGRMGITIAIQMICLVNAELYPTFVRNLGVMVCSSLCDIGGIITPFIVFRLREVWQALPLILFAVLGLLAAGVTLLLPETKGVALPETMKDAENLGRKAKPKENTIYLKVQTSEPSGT

CC1=N[C@]2(C(=O)CO)[C@@H](C[C@H]3[C@@H]4C[C@@H](O)C5=CC(=O)C=C[C@]5(C)[C@H]4[C@@H](O)C[C@@]32C)O1 [6β‐OH‐21‐desDFZ, 6β‐Hydroxy‐21‐desacetyl deflazacort]
estimated plasma Cmax/IC50 ratio (human OATP1B3; OATP1B3, Cmax 0.34 µM, assumed 100% free): 0.008
Maximum inhibition at 50 µM (human OATP1B3; OATP1B3 UPT, n = 3): 57 % of control
IC50 (human OATP1B3; OATP1B3 UPT, brackets: 95% confidence interval): 42.2 µM
Maximum inhibition at 50 µM (human MATE2‐K; MATE2‐K UPT, n = 3): 26 % of control
inhibitory interaction with transporter (human MATE2‐K; MATE2‐K, up to 50 µM): no inhibitory interaction
inhibitory interaction with transporter (human OAT1; OAT1, up to 50 µM): did not show interaction; also recorded: no inhibitory interaction
Maximum inhibition at 50 µM (human OAT1; OAT1 UPT, n = 3): <20 % of control
share of 0–24 h plasma levels of total radioactivity [1]: 25%
inhibitory interaction with transporter (human MATE1; MATE1, up to 50 µM): no inhibitory interaction
Maximum inhibition at 50 µM (human MATE1; MATE1 UPT, n = 3): 26 % of control
inhibitory interaction with transporter (human OCT1; OCT1, up to 50 µM): no inhibitory interaction
Maximum inhibition at 50 µM (human OCT1; OCT1 UPT, n = 3): 23 % of control
inhibitory interaction with transporter (human OCT2; OCT2, up to 50 µM): did not show interaction; also recorded: no inhibitory interaction
Maximum inhibition at 50 µM (human OCT2; OCT2 UPT, n = 3): <20 % of control

— paper PMC7982320 (Pharmacology Research & Perspectives, 2021)
